Source: PMC12771125, “Compounds Reducing Human Sperm Motility as Potential Nonhormonal Contraceptives Identified Using a High-Throughput Phenotypic Screening Platform” (ACS Omega, 2025)
≈ marks a conversion by molar mass, not a printed value. Read-outs that look alike come from different tables or passages of the source.

Key:
human sperm = assay: Reduction of sperm motility (RSM) high-throughput phenotypic assay; type: cell-based; details: for EC50: Homo sapiens
Procedure: Using our previously established phenotypic human sperm motility screening platform, we screened a large subset (62,621 compounds) of one of our in-house diversity libraries (National Phenotypic Screening Centre (NPSC) Diversity Set) (Figure A,B). Briefly, human sperm are collected, isolated from semen, distributed into 384-well plates with test compounds, time-lapse images of sperm movement are recorded using a high-content imager, and progressive motility parameters are calculated using custom data analysis software. Sperm motility is complicated, and the mechanisms underpinning its regulation are not fully understood. Progressive motility, which is a measurement of the movement of forward progression of sperm, is most closely linked to sperm quality, and the percentage of progressively motile sperm compared to control is therefore the parameter utilized during the work described in this paper. […]
We used an HTS screening platform to assess the motility of live human spermatozoa. The platform and its development are described in detail in Gruber et al. , and summarized below in brief. The platform was used to screen compound libraries specifically focusing on reduction in motility. Interesting compounds were examined in further detail as possible starting points for a medicinal chemistry program. The experimental design is illustrated in Figure .
Donors were local to the Dundee area, over the age of 18, and had no known fertility problems and normal sperm concentration, motility and semen characteristics according to WHO 2021 criteria. Special category personal data for donors, such as ethnic origin, was not recorded in accordance with ethical approval and UK GDPR. Samples were obtained by masturbation, after sexual abstinence of 2–5 days, and delivered to the research laboratory within one h of production. Samples were allowed to liquefy at 37 °C for 15–30 min prior to preparation by discontinuous density gradient centrifugation (DGC). […] A minimum of 3 prepared donor samples were routinely pooled to reduce donor-to-donor variability for primary screening assays. Pooled samples were incubated for 3 h at 37 °C under noncapacitating conditions.
In brief, screening batches of cells were transferred to a robotic platform (HighRes Biosolutions Inc.) and maintained during the screen at 37 °C at 5% CO2. Assay-ready 384-well plates containing compounds were prepared prior to the screen and filled with approximately 10,000 spermatozoa (20 μL) per well using a liquid handling system (MultiDrop Combi; ThermoFisher). These plates were incubated for 10 min prior to imaging. The HTS system utilized a Yokogawa CV7000 Cell Voyager high-throughput microscope to record time-lapse images from 2 positions in each well. An adaptation of a tracking algorithm, Trackpy v0.4.1 was utilized to track individual spermatozoa within each well and obtain kinematic parameters. Within the compound-test plates, DMSO was used as the vehicle control.
All steps were performed as previously described. , In summary, data from every compound well were normalized to those from in-plate DMSO controls (wells containing the same amount of DMSO as compound wells). Two positions were recorded in every well, and the average of those positions was used for calculating % of control (median value/DMSO median) × 100. Each plate contained 16 DMSO control wells. Median curvilinear velocity (VCL) was used as the primary readout for the NPSC Diversity Set screened at 6 μM, and percentage progressive motility (PM) was used for all other libraries screened. Hits from the primary screening were chosen based on the % change compared to the control. In these experiments, an RSM of ≥20% compared to negative controls (DMSO) was chosen as a cutoff for potential progression.
In a screening program of this scale, a significant number of compounds are likely to have a negative effect on sperm motility, but a number will show general toxicity. […]

Aqueous solubility = type: physicochemical
HepG2 cells = assay: HepG2 cytotoxicity assay (resazurin, 72 h); type: cell-based, human; details: Homo sapiens, HepG2, 72 h; read-out: HepG2 pEC50 (converted)
From the text: Our overarching aims for investigating our chemical series and deciding which ones had the potential for further progression were to achieve adequate potency in our motility assay, suitable solubility, and minimal cytotoxicity in HepG2 cells. This third point was often the most challenging, as multiple series had cytotoxicity in HepG2 cells. This observation is perhaps not surprising; many potential targets in sperm cells can also be found in somatic cells. Our cytotoxicity assay is run with an incubation time of 72 h, to give time for gross cytotoxic effects to become apparent.
Compound dilution curves were plated directly using a Labcyte Echo 550 acoustic dispenser (125 nL) in 384-well white clear-bottom plates (Greiner). HepG2 cells (ATCCHepG2 HB-8065) were cultured in minimum essential medium (supplemented with glutamax) with 10% FCS and plated (25 μL) using a WellMate dispenser ([…]) and incubated for 72 h. Doxorubicin was used as a positive control drug. Resazurin was then added to each well at a final concentration of 45 μM, and fluorescence was measured using a PHERAstar LS (BMG Labtech) after 4 h of further incubation (excitation of 528 nm and emission of 590 nm). Raw data were normalized to controls and expressed as % growth.
Figure S2: Concentration-response curves from high throughput HepG2 viability assay. Each compound was tested in duplicate and the curves of each replicate are shown. The reported values in the tables are an average of the 2 pEC50 values obtained. […]
determine 0% effect, positive control used to determine 100% effect).
Hit compounds 1a, 6b and 7a were repurchased from commercial suppliers including enamine and […]

[1] = 10 min, 10 min incubation, reduction of progressive sperm motility relative to control, reported <X (neg. log of top concentration) if largest reduction <70%, read-out: RSM pEC50 10 mins (converted)
[2] = 3 h incubation, reduction of progressive sperm motility relative to control, reported <X if largest reduction <70%, read-out: RSM pEC50 3 hrs (converted)
[3] = 6 h incubation, reduction of progressive sperm motility relative to control, reported <X if largest reduction <70%, read-out: RSM pEC50 6 hrs (converted)

Molecule | RSM pEC50 10 mins (human sperm; 10 min incubation, reduction of progressive sperm motility relative to control, reported <X (neg. log of top concentration) if largest reduction <70%) | RSM pEC50 3 hrs (human sperm; 3 h incubation, reduction of progressive sperm motility relative to control, reported <X if largest reduction <70%) | RSM pEC50 6 hrs (human sperm; 6 h incubation, reduction of progressive sperm motility relative to control, reported <X if largest reduction <70%) | difference between pEC50 in the sperm motility assay and pEC50 in the HepG2 cytotoxicity assay (human sperm) | EC50 (human sperm; [1]) | solubility (Aqueous solubility) | EC50 (HepG2 cells) | EC50 (human sperm; [2]) | EC50 (human sperm; [3])
2-(Phenoxymethyl)-N-(4-(pyridin-2-yl)thiazol-2-yl)benzamide [Compound 3a] | <4.5 | 5.0 | 5.3 | – | – | – | – | – | –
O=C(Nc1ccc([N+](=O)[O-])cc1Cl)c1cc(Cl)ccc1O [Compound 1a, Niclosamide, reference compound] | – | – | – | 0.5 log units | 1 µM | 4.5 µM (≈ 1.47 µg/mL) | 3.16 µM | – | –
NCCN(C(=O)c1ccc(Cl)cc1Cl)c1ccc(OCc2ccc(Cl)cc2)cc1 [Compound 1b, N-(2-Aminoethyl)-2,4-dichloro-N-(4-((4-chlorobenzyl)oxy)phenyl)benzamide] | – | – | – | – | 12.6 µM | 53 µM (≈ 23.8 µg/mL) | 5.01 µM | 20 µM | 10 µM
Cc1cc(NC(=O)c2cc(Cl)ccc2O)ccc1C#N [Compound 1c] | – | – | – | – | 3.98 µM | 60 µM (≈ 17.2 µg/mL) | 25.1 µM | – | –
N#Cc1ccc(NC(=O)c2cc(Cl)ccc2O)cc1F [Compound 1d] | – | – | – | – | 2.51 µM | 35 µM (≈ 10.2 µg/mL) | 6.31 µM | – | –
N#Cc1ccc(NC(=O)c2cc(Cl)ccc2O)cc1Cl [Compound 1e] | – | – | – | – | 2.51 µM | 2.3 µM (≈ 0.706 µg/mL) | 5.01 µM | – | –
O=C(Nc1cccc(Cl)c1)c1cc(Cl)ccc1O [Compound 1f] | – | – | – | – | 5.01 µM | 4.1 µM (≈ 1.16 µg/mL) | 6.31 µM | – | –
N#Cc1ccc(NC(=O)c2cc(Cl)ccc2O)cc1 [Compound 1g] | – | – | – | – | 5.01 µM | 11 µM (≈ 3 µg/mL) | 2.51 µM | – | –
N#Cc1ccc(NC(=O)c2cc(Cl)ccc2O)cn1 [Compound 1h] | – | – | – | – | > 20 µM | 100 µM (≈ 27.4 µg/mL) | 20 µM | – | –
N#Cc1ccc(NC(=O)c2ccccc2)cc1Cl [Compound 1i] | – | – | – | – | > 20 µM | – | 39.8 µM | – | –
COc1ccc(Cl)cc1C(=O)Nc1ccc(C#N)c(Cl)c1 [Compound 1j] | – | – | – | – | > 20 µM | 0.19 µM (≈ 0.061 µg/mL) | > 100 µM | – | –
O=C(Nc1ccc(OCc2ccccc2)cc1)c1ccccc1Cl [Compound 1k] | – | – | – | – | > 20 µM | 0.64 µM (≈ 0.216 µg/mL) | > 100 µM | – | –
NCCN(C(=O)c1ccccc1Cl)c1ccc(Cl)cc1 [Compound 1l] | – | – | – | – | > 31.6 µM | 240 µM (≈ 74.2 µg/mL) | 79.4 µM | > 31.6 µM | > 31.6 µM
NCCN(C(=O)c1ccc(F)cc1Cl)c1ccc(Cl)cc1 [Compound 1m] | – | – | – | – | > 31.6 µM | – | 63.1 µM | > 31.6 µM | > 31.6 µM
NCCN(C(=O)c1ccc(F)cc1F)c1ccc(Cl)cc1 [Compound 1n] | – | – | – | – | > 31.6 µM | 73 µM (≈ 22.7 µg/mL) | > 100 µM | > 31.6 µM | > 31.6 µM
O=C(Nc1nc(C2CC2)cs1)Nc1ccc(F)cc1F [Compound 3h] | – | – | – | – | > 31.6 µM | – | 63.1 µM | > 31.6 µM | > 31.6 µM
O=C(Nc1nc(-c2ccccn2)co1)Nc1ccc(F)cc1F [Compound 3n] | – | – | – | – | > 31.6 µM | – | > 100 µM | > 31.6 µM | > 31.6 µM
CCN(CC)Cc1cc(Nc2ccnc3cc(Cl)ccc23)ccc1O [Compound 5a, 4-((7-Chloroquinolin-4-yl)amino)-2-((diethylamino)methyl)phenol, reference compound] | – | – | – | – | > 31.6 µM | – | 20 µM | > 31.6 µM | 0.501 µM

Molecule | RSM pEC50 10 mins (human sperm; 10 min incubation, reduction of progressive sperm motility relative to control, reported <X (neg. log of top concentration) if largest reduction <70%) | RSM pEC50 3 hrs (human sperm; 3 h incubation, reduction of progressive sperm motility relative to control, reported <X if largest reduction <70%) | RSM pEC50 6 hrs (human sperm; 6 h incubation, reduction of progressive sperm motility relative to control, reported <X if largest reduction <70%) | difference between pEC50 in the sperm motility assay and pEC50 in the HepG2 cytotoxicity assay (human sperm) | EC50 (human sperm; [1]) | solubility (Aqueous solubility) | EC50 (HepG2 cells) | EC50 (human sperm; [2]) | EC50 (human sperm; [3])
Oc1ccc(Nc2ccnc3cc(Cl)ccc23)cc1CN1CCCC1 [Compound 5b] | – | – | – | – | > 31.6 µM | – | 12.6 µM | > 31.6 µM | 0.2 µM
Oc1ccc(Nc2ccnc3cc(Cl)ccc23)cc1CN1CCNCC1 [Compound 5c] | – | – | – | – | > 31.6 µM | – | 12.6 µM | > 31.6 µM | 0.794 µM
Fc1ccc(Nc2ccnc3cc(Cl)ccc23)cc1CN1CCCC1 [Compound 5h] | – | – | – | – | > 31.6 µM | – | – | > 31.6 µM | > 31.6 µM
Cc1cc(C)nc(-n2nc(C)cc2Nc2ccccc2)n1 [Compound 6a, 1-(4,6-dimethylpyrimidin-2-yl)-3-methyl-N-phenyl-1H-pyrazol-5-amine] | – | – | – | – | > 31.6 µM | – | – | 5.01 µM | 1.58 µM
O=C1COC2(CCN(Cc3ccc(F)cc3)CC2)CN1 [Compound 8a, 9-(4-Fluorobenzyl)-1-oxa-4,9-diazaspiro[5.5]undecan-3-one] | – | – | – | – | 12.6 µM | – | > 100 µM | 2 µM | 0.794 µM
O=C1COC2(CCN(Cc3ccncc3)CC2)CN1 [Compound 8b] | – | – | – | – | 15.8 µM | – | – | 1.26 µM | 0.501 µM
O=C1COC2(CCN(Cc3cccnc3)CC2)CN1 [Compound 8c] | – | – | – | – | > 31.6 µM | – | – | 6.31 µM | 1.58 µM
O=C1COC2(CCN(Cc3ccsc3)CC2)CN1 [Compound 8d] | – | – | – | – | > 31.6 µM | – | – | 2 µM | 1 µM
O=C1COC2(CCN(Cc3ccoc3)CC2)CN1 [Compound 8e] | – | – | – | – | > 31.6 µM | – | – | 3.16 µM | 1.26 µM
O=C1COC2(CCN(Cc3ccco3)CC2)CN1 [Compound 8f] | – | – | – | – | > 31.6 µM | – | – | > 31.6 µM | 25.1 µM
Cc1ccc(CN2CCC3(CC2)CNC(=O)CO3)cc1 [Compound 8g] | – | – | – | – | > 31.6 µM | – | – | > 31.6 µM | > 31.6 µM
CN1CC2(CCN(Cc3ccc(F)cc3)CC2)OCC1=O [Compound 8h] | – | – | – | – | > 31.6 µM | – | > 100 µM | > 31.6 µM | > 31.6 µM
NC(=O)N1CCC2(CCN(Cc3cccc(F)c3)CC2)CC1 [Compound 9a, 9-(3-Fluorobenzyl)-3,9-diazaspiro[5.5]undecane-3-carboxamide] | – | – | – | – | > 31.6 µM | – | > 100 µM | 6.31 µM | 3.98 µM
CC(=O)N1CCC2(CCN(Cc3cccc(F)c3)CC2)CC1 [Compound 9b] | – | – | – | – | > 31.6 µM | – | – | > 31.6 µM | > 31.6 µM
CNC(=O)N1CCC2(CCN(Cc3cccc(F)c3)CC2)CC1 [Compound 9c] | – | – | – | – | > 31.6 µM | – | – | > 31.6 µM | > 31.6 µM
Fc1cccc(CN2CCC3(CCNCC3)CC2)c1 [Compound 9d] | – | – | – | – | > 31.6 µM | – | 63.1 µM | > 31.6 µM | > 31.6 µM
NC(=O)N1CCC2(CCN(Cc3ccc(F)cc3)CC2)CC1 [Compound 9e] | – | – | – | – | > 31.6 µM | – | – | > 31.6 µM | > 31.6 µM
